# From patent publication US12012392B2, “Sulfonamide carboxamide compounds” (Inflazome Limited, priority 2017, dated 2024)
# Assays:
# [1] = biological target: T1, NLRP3 (Homo sapiens, UniProt Q96P20); assay: THP-1 cells pyroptosis assay; type: cell-based; design: Seed THP-1 cells (25,000 cells/well) containing 1.0 μg/ml LPS; host or cells: THP-1 cells, LPS-primed, nigericin-stimulated; details: LPS 1 μg/ml, nigericin 5 μM, resazurin read-out
# Experimental: THP-1 cells (ATCC #TIB-202) were grown in RPMI containing L-glutamine (Gibco #11835) supplemented with 1 mM sodium pyruvate (Sigma #S8636) and penicillin (100 units/ml)/streptomycin (0.1 mg/ml) (Sigma #P4333) in 10% Fetal Bovine Serum (FBS) (Sigma #F0804). The cells were routinely passaged and grown to confluency (˜10^6 cells/ml). On the day of the experiment, THP-1 cells were harvested and resuspended into RPMI medium (without FBS). The cells were then counted and viability (>90%) checked by Trypan blue (Sigma #T8154). Appropriate dilutions were made to give a concentration of 625,000 cells/ml. To this diluted cell solution was added LPS (Sigma #L4524) to give a 1 μg/ml Final Assay Concentration (FAC). 40 μl of the final preparation was aliquoted into each well of a 96-well plate. The plate thus prepared was used for compound screening.
# The following method step-by-step assay was followed for compound screening. • 1. Seed THP-1 cells (25,000 cells/well) containing 1.0 μg/ml LPS in 40 μl of RPMI medium (without FBS) in 96-well, black walled, clear bottom cell culture plates coated with poly-D-lysine (VWR #734-0317) • 2. Add 5 μl compound (8 points half-log dilution, with 10 μM top dose) or vehicle (DMSO 0.1% FAC) to the appropriate wells • 3. Incubate for 3 hrs at 37° C. and 5% CO2 • 4. Add 5 μl nigericin (Sigma #N7143) (FAC 5 μM) to all wells • 5. Incubate for 1 hr at 37° C. and 5% CO2 • 6. At the end of the incubation period, spin plates at 300×g for 3 mins and remove supernatant • 7. Then add 50 μl of resazurin (Sigma #R7017) (FAC 100 μM resazurin in RPMI medium without FBS) and incubate plates for a further 1-2 hrs at 37° C. and 5% CO2 • 8. Plates were read in an Envision reader at Ex 560 nm and Em 590 nm • 9. IC50 data is fitted to a non-linear regression equation (log inhibitor vs response-variable slope 4-parameters) 96-Well Plate Map
# [2] = biological target: T1, NLRP3; assay: Human whole blood IL1β release assay; type: cell-based; design: Plate out 80 μl of whole blood containing 1 μg/ml of LPS; from tissue; host or cells: human whole blood from healthy donors, LPS-primed, nigericin-stimulated; details: LPS 1 μg/ml, nigericin 10 μM, IL-1β AlphaLisa, read-out: HWB IC50
# Experimental: For systemic delivery, the ability to inhibit NLRP3 when the compounds are present within the bloodstream is of great importance. For this reason, the NLRP3 inhibitory activity of a number of compounds in human whole blood was investigated in accordance with the following protocol.
# Human whole blood in Li-heparin tubes was obtained from healthy donors from a volunteer donor panel. • 1. Plate out 80 μl of whole blood containing 1 μg/ml of LPS in 96-well, clear bottom cell culture plate (Corning #3585) • 2. Add […] compound (8 points half-log dilution with 10 μM top dose) or vehicle (DMSO 0.1% FAC) to the appropriate wells • 3. Incubate for 3 hrs at 37° C., 5% CO2 • 4. Add 10 μl Nigericin (Sigma #N7143) (10 μM FAC) to all wells • 5. Incubate for 1 hr at 37° C., 5 CO2 • 6. At the end of the incubation period, spin plates at 300×g for 5 mins to pellet cells and remove 20 μl of supernatant and add to 96-well v-bottom plates for […] analysis (note: these plates containing the supernatants can be stored at −80° C. to be analysed at a later date) • 7. IL-1β was measured according to the manufacturer protocol (Perkin Elmer-AlphaLisa IL-1 Kit AL220F-5000) • 8. IC50 data is fitted to anon-linear regression equation (log inhibitor vs response-variable slope 4-parameters)
# T1 sequence (Q96P20 whole entry): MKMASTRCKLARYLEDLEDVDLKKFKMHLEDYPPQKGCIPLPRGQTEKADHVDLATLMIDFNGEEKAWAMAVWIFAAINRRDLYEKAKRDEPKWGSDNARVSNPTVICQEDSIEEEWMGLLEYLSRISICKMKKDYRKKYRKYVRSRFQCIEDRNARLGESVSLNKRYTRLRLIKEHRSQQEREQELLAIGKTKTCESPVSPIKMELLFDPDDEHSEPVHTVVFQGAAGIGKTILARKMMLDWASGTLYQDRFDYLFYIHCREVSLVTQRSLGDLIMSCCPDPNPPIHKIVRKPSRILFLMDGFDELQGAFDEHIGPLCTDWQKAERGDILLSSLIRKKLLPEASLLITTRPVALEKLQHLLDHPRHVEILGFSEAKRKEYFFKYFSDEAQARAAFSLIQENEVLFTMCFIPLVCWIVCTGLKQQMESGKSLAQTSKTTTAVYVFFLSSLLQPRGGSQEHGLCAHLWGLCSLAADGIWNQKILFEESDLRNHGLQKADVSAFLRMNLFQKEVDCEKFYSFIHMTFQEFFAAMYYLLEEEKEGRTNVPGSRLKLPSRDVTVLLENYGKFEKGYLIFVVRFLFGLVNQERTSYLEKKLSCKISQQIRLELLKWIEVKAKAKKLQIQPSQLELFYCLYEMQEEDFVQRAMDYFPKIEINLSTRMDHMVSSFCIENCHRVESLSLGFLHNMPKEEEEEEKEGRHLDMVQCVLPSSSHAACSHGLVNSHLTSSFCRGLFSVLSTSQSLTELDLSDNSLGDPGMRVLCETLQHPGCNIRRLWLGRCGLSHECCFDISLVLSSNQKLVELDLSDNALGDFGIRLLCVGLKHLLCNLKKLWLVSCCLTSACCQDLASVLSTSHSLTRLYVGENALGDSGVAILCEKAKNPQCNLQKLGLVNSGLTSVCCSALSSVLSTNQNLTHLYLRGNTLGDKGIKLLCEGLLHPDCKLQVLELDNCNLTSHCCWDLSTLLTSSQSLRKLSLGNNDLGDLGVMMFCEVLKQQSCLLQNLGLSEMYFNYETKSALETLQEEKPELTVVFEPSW
SMILES,IC50 [1] [nM],IC50 [2] [nM]
"COC1(c2cc(S(=O)(=O)NC(=O)Nc3c4c(cc5c3CCC5)CCC4)nn2C(C)(C)C)COC1 [Example 39, 1-(tert-Butyl)-N-((1,2,3,5,6,7-hexahydro-s-indacen-4-yl)carbamoyl)-5-(3-methoxyoxetan-3-yl)-1H-pyrazole-3-sulfonamide]",40 to 160,1600 to 3200
"COc1cc(-c2cc(F)cc(C(C)C)c2NC(=O)NS(=O)(=O)c2cc(C3(OC)COC3)n(C)n2)ccn1 [Example 40, N-((4-Fluoro-2-isopropyl-6-(2-methoxypyridin-4-yl)phenyl)carbamoyl)-5-(3-methoxyoxetan-3-yl)-1-methyl-1H-pyrazole-3-sulfonamide]",160 to 640,< 400
"CCOC1(c2cc(S(=O)(=O)NC(=O)Nc3c4c(cc5c3CCC5)CCC4)nn2C)COC1 [Example 41, 5-(3-Ethoxyoxetan-3-yl)-N-((1,2,3,5,6,7-hexahydro-s-indacen-4-yl)carbamoyl)-1-methyl-1H-pyrazole-3-sulfonamide]",40 to 160,400 to 800
"CC(C)n1nc(S(=O)(=O)NC(=O)Nc2c3c(cc4c2CCC4)CCC3)cc1C1(O)COC1 [Example 47, N-((1,2,3,5,6,7-Hexahydro-s-indacen-4-yl)carbamoyl)-5-(3-hydroxyoxetan-3-yl)-1-isopropyl-1H-pyrazole-3-sulfonamide]",40 to 160,400 to 800
"Cn1nc(S(=O)(=O)NC(=O)Nc2c3c(cc4c2CCC4)CCC3)cc1C1(F)COC1 [Example 49, 5-(3-Fluorooxetan-3-yl)-N-((1,2,3,5,6,7-hexahydro-s-indacen-4-yl)carbamoyl)-1-methyl-1H-pyrazole-3-sulfonamide]",160 to 640,800 to 1600
"Cn1nc(S(=O)(=O)NC(=O)Nc2c3c(cc4c2CCC4)CCC3)cc1CC(C)(C)O [Example 50, N-((1,2,3,5,6,7-Hexahydro-s-indacen-4-yl)carbamoyl)-5-(2-hydroxy-2-methylpropyl)-1-methyl-1H-pyrazole-3-sulfonamide]",40 to 160,800 to 1600
"Cn1nc(S(=O)(=O)NC(=O)Nc2c3c(cc4c2CCC4)CCC3)cc1C1(O)CCOCC1 [Example 55, N-((1,2,3,5,6,7-Hexahydro-s-indacen-4-yl)carbamoyl)-5-(4-hydroxytetrahydro-2H-pyran-4-yl)-1-methyl-1H-pyrazole-3-sulfonamide]",160 to 640,800 to 1600
"Cn1nc(S(=O)(=O)NC(=O)Nc2c3c(cc4c2CCC4)CCC3)cc1C(=O)N(CCO)CCO [Example 61, 3-(N-((1,2,3,5,6,7-Hexahydro-s-indacen-4-yl)carbamoyl)sulfamoyl)-N,N-bis(2-hydroxyethyl)-1-methyl-1H-pyrazole-5-carboxamide]",160 to 640,< 400
"CN(CCCO)C(=O)c1cc(S(=O)(=O)NC(=O)Nc2c3c(cc4c2CCC4)CCC3)nn1C [Example 64, 3-(N-((1,2,3,5,6,7-Hexahydro-s-indacen-4-yl)carbamoyl)sulfamoyl)-N-(3-hydroxypropyl)-N,1-dimethyl-1H-pyrazole-5-carboxamide]",160 to 640,1600 to 3200
"CCN(CCO)C(=O)c1cc(S(=O)(=O)NC(=O)Nc2c3c(cc4c2CCC4)CCC3)nn1C [Example 66, N-Ethyl-3-(N-((1,2,3,5,6,7-hexahydro-s-indacen-4-yl)carbamoyl)sulfamoyl)-N-(2-hydroxyethyl)-1-methyl-1H-pyrazole-5-carboxamide]",160 to 640,800 to 1600
"CC(C)c1cc(Cl)cc(C(C)C)c1NC(=O)NS(=O)(=O)c1cc(C(=O)N(C)CCO)n(C)n1 [Example 82, 3-(N-((4-Chloro-2,6-diisopropylphenyl)carbamoyl)sulfamoyl)-N-(2-hydroxyethyl)-N,1-dimethyl-1H-pyrazole-5-carboxamide]",40 to 160,800 to 1600
COc1cc(-c2ccc3c(c2NC(=O)NS(=O)(=O)c2ccn(C(C)(C)CN4CC(OC)C4)n2)CCC3)ccn1 [Example 90],< 40,< 400
N#Cc1cc(-c2ccc3c(c2NC(=O)NS(=O)(=O)c2ccn(C4CCOC4)n2)CCC3)ccn1 (centres unmarked) [Example 91],< 40,< 400
